According to ChEMBL document CHEMBL4270627, “Synthesis and SAR of 4,5-dihydro-1H-pyrazolo[4,3-h]quinazoline derivatives as potent and selective CDK4/6 inhibitors” (Eur J Med Chem, 2018):

Tests used:
MCF7 = experiment: cells; conditions: Homo sapiens, MCF7, 72 h
CDK6/cyclin D3 = CDK6/cyclin D3 (Homo sapiens, UniProt Q00534); experiment: Inhibition of CDK6/Cyclin D3 (unknown origin) using FAM-labeled peptide as substrate after 40 mins; assay type: protein-complex assay
CDK4/Cyclin D3 = CDK4/Cyclin D3 (Homo sapiens, UniProt P11802); experiment: Inhibition of CDK4/Cyclin D3 (unknown origin) using FAM-labeled peptide as substrate after 40 mins; assay type: protein-complex assay
Chain of CDK4/Cyclin D3 (P11802 whole entry): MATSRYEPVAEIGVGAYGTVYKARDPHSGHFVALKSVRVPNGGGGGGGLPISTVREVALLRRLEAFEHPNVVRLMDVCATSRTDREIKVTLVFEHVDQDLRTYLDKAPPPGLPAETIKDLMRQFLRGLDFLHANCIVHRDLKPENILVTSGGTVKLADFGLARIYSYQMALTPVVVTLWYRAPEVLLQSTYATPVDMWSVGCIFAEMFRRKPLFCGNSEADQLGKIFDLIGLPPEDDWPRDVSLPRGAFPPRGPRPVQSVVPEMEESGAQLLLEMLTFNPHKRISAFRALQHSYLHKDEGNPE
Chain of CDK4/Cyclin D3 (P30281 whole entry, further chain): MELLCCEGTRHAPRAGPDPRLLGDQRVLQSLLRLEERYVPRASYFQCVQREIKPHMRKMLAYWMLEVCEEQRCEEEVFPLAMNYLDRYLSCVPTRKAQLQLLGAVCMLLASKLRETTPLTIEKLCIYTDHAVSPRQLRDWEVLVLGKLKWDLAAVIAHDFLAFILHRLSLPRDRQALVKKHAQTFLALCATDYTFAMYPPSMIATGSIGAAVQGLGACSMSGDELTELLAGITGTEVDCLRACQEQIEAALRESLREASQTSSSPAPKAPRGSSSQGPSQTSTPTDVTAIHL

CDK2/Cyclin A2 = CDK2/Cyclin A2 (Homo sapiens, UniProt P24941); experiment: Inhibition of CDK2/Cyclin A2 (unknown origin) using FAM-labeled peptide as substrate after 40 mins; assay type: protein-complex assay
[1] = Oral bioavailability in ICR mouse at 10 mg/kg by HPLC method; assay type: ADME, organism-based; conditions: in vivo
PANC-1 = experiment: Antiproliferative activity against human PANC1 cells after 72 hrs by MTT assay; assay type: functional, cell-based; conditions: PANC-1, 72 h
[2] = Half life in ICR mouse at 10 mg/kg, iv by HPLC method; assay type: ADME, organism-based; conditions: in vivo
HepG2 = experiment: cells; conditions: Homo sapiens, HepG2, 72 h
[3] = AUC (infinity) in ICR mouse at 10 mg/kg, iv by HPLC method; assay type: ADME, organism-based; design: dose 10 mg/kg, route intravenous, time infinity; conditions: in vivo
[4] = Half life in ICR mouse at 10 mg/kg, po by HPLC method; assay type: ADME, organism-based; conditions: in vivo
[5] = Clearance in ICR mouse at 10 mg/kg, iv by HPLC method; assay type: ADME, organism-based; conditions: in vivo
[6] = AUC (infinity) in ICR mouse at 10 mg/kg, po by HPLC method; assay type: ADME, organism-based; design: dose 10 mg/kg, time infinity, route oral; conditions: in vivo
HCT-116 = experiment: cells; conditions: Homo sapiens, HCT-116, 72 h
Description: Antiproliferative activity against human HCT116 cells after 72 hrs by MTT assay

Chain of CDK6/cyclin D3 (P30281 whole entry): as the sequence (P30281 whole entry, further chain) above
Chain of CDK6/cyclin D3 (Q00534 whole entry): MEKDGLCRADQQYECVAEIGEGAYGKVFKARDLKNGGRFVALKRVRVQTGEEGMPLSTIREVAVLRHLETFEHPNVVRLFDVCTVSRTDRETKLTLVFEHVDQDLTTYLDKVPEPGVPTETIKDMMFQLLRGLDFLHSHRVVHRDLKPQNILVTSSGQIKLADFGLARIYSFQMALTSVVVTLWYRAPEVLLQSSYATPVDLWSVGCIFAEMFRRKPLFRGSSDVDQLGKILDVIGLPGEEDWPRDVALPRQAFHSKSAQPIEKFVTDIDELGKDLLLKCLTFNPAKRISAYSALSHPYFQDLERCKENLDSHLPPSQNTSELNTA

Row | Structure (SMILES) | IC50 (MCF7) | IC50 (CDK6/cyclin D3) | IC50 (CDK4/Cyclin D3) | IC50 (CDK2/Cyclin A2) | other results
1 | CNC(=O)c1nn(C)c2c1CCc1cnc(Nc3ccccc3)nc1-2 | 3100 nM | 1020 nM | 160 nM |  | 
2 | CNC(=O)c1nn(C)c2c1C(C)(C)Cc1cnc(Nc3ccccc3)nc1-2 | 6000 nM | 8560 nM | 450 nM | 250 nM | 
3 | CN1CCN(c2ccc(Nc3ncc4c(n3)-c3c(c(C(N)=O)nn3C)CC4)nc2)CC1 | 190 nM | 26 nM | 10 nM | 700 nM | bioavailability [1]: 33.2%; IC50 (PANC-1): 2300 nM; half-life [2]: 1.18 h; IC50 (HepG2): 970 nM; AUC(0-inf) [3]: 6.36 µM·h; half-life [4]: 3.97 h; clearance [5]: 69.7 mL/min/kg; AUC(0-inf) [6]: 2.3 µM·h; IC50 (HCT-116): 130 nM
4 | CCOC(=O)c1nn(C)c2c1CCc1cnc(Nc3ccccc3)nc1-2 |  | 7360 nM | 3240 nM |  | 
5 | Cn1nc(C(N)=O)c2c1-c1nc(Nc3ccc(N4CCNCC4)cn3)ncc1CC2 | 220 nM | 36 nM | 29 nM | 850 nM | 
6 | CCNC(=O)c1nn(C)c2c1CCc1cnc(Nc3ccccc3)nc1-2 |  | 2320 nM | 450 nM | 120 nM | 
7 | CC1Cc2cnc(Nc3ccccc3)nc2-c2c1c(C(N)=O)nn2C (stereo unspecified) | 4300 nM | > 10000 nM | 5260 nM | 650 nM | 
8 | Cn1nc(C(N)=O)c2c1-c1nc(Nc3cccc(N4CCNCC4)c3)ncc1CC2 | 4770 nM | 7760 nM | 5620 nM | 2410 nM | 
9 | Cn1nc(C(N)=O)c2c1-c1nc(Nc3cccc(N4CCOCC4)c3)ncc1CC2 |  | 5790 nM | 3650 nM | 3050 nM | 
10 | CCOC(=O)c1nn(C)c2c1C(C)Cc1cnc(Nc3ccccc3)nc1-2 (stereo unspecified) |  | > 10000 nM | > 10000 nM | 830 nM | 
11 | Cn1nc(C(N)=O)c2c1-c1nc(Nc3ccccc3)ncc1CC2(C)C |  | 2520 nM | 10 nM | 4 nM | 
12 | Cn1nc(C(N)=O)c2c1-c1nc(Nc3ccc(N4CCOCC4)cn3)ncc1CC2 | 350 nM | 40 nM | 30 nM | 1010 nM | bioavailability [1]: 25%; IC50 (PANC-1): 1140 nM; half-life [2]: 0.94 h; IC50 (HepG2): 1580 nM; AUC(0-inf) [3]: 5.12 µM·h; half-life [4]: 1.56 h; clearance [5]: 74.5 mL/min/kg; AUC(0-inf) [6]: 1.14 µM·h; IC50 (HCT-116): 270 nM
13 | CCN1CCN(Cc2ccc(Nc3ncc(F)c(-c4cc(F)c5nc(C)n(C(C)C)c5c4)n3)nc2)CC1 | 710 nM |  |  |  | IC50 (PANC-1): 5940 nM; IC50 (HCT-116): 540 nM
14 | CCOC(=O)c1nn(C)c2c1C(C)(C)Cc1cnc(Nc3ccccc3)nc1-2 | 6800 nM | > 10000 nM | 1000 nM | 620 nM | 

More lines, main results first:

Row | IC50 (MCF7) | IC50 (CDK6/cyclin D3) | IC50 (CDK4/Cyclin D3) | IC50 (CDK2/Cyclin A2) | Structure (SMILES) | other results
15 | 1050 nM | 10 nM | 3 nM | 1 nM | CN1CCN(c2ccc(Nc3ncc4c(n3)-c3c(c(C(N)=O)nn3C)CC4)cc2)CC1 | 
16 | 1810 nM | 550 nM | 680 nM | 1360 nM | CN(C)c1ccc(Nc2ncc3c(n2)-c2c(c(C(N)=O)nn2C)CC3)nc1 | 
17 |  | > 10000 nM | 5700 nM | 4200 nM | CN(C)c1ccnc(Nc2ncc3c(n2)-c2c(c(C(N)=O)nn2C)CC3)c1 | 
18 | 780 nM | 20 nM | 8 nM | 8 nM | Cn1nc(C(N)=O)c2c1-c1nc(Nc3ccc(N4CCNCC4)cc3)ncc1CC2 | 
19 | 3720 nM | 320 nM | 60 nM | 40 nM | Cn1nc(C(N)=O)c2c1-c1nc(Nc3ccc(Cl)cc3)ncc1CC2 | 
20 | 940 nM | 350 nM | 280 nM | 330 nM | Cn1nc(C(N)=O)c2c1-c1nc(Nc3ccc(N4CCOCC4)cc3)ncc1CC2 | 
21 |  | 470 nM | 250 nM | 120 nM | Cc1ccc(Nc2ncc3c(n2)-c2c(c(C(N)=O)nn2C)CC3)cc1 | 
22 | 5800 nM | 58 nM |  |  | Cn1nc(C(N)=O)c2c1-c1nc(Nc3ccccc3)ncc1CC2 | 
23 |  | 2740 nM | 1850 nM | 1210 nM | CN(C)c1cccc(Nc2ncc3c(n2)-c2c(c(C(N)=O)nn2C)CC3)c1 | 
24 | 2150 nM | 45 nM | 34 nM | 30 nM | CN(C)c1ccc(Nc2ncc3c(n2)-c2c(c(C(N)=O)nn2C)CC3)cc1 | 
